According to patent US20220204439A1, “LIPIDS AND LIPID NANOPARTICLE FORMULATIONS FOR DELIVERY OF NUCLEIC ACIDS” (Acuitas Therapeutics, Inc., priority 2015, published 2022):

Key:
[1] = tested on: luciferase expression in the liver; assay: In vivo luciferase mRNA expression in mouse liver with lipid nanoparticle formulations; set-up: species or system C57BL/6 mice; settings: tail vein injection, liver 4 hours after administration, FLuc mRNA; for Liver Luc @ 0.3 mg/kg dose / Liver Luc @ 0.3 mg/kg (ng luc/g liver): 0.3 mg mRNA/kg; for Liver Luc @ 0.3 mg/kg dose / Liver Luc @ 1.0 mg/kg dose: LNP 50% cationic lipid/10% DSPC/38.5% cholesterol/1.5% PEG-DMG; for Liver Luc @ 1.0 mg/kg dose / Liver Luc @ 1.0 mg/kg (ng luc/g liver): 1.0 mg mRNA/kg; for Liver Luc @ 0.3 mg/kg (ng luc/g liver) / Liver Luc @ 1.0 mg/kg (ng luc/g liver): LNP 50% cationic lipid/10% DSPC/38.5% cholesterol/1.5% PEG-DMA
Description: Cationic lipid (MC3), DSPC, cholesterol and PEG-lipid were solubilized in ethanol at a molar ratio of 50:10:38.5:1.5. Lipid nanoparticles (LNP) were prepared at a total lipid to mRNA weight ratio of approximately 10:1 to 30:1. Briefly, the mRNA was diluted to 0.2 mg/mL in 10 to 50 mM citrate buffer, pH 4. Syringe pumps were used to mix the ethanolic lipid solution with the mRNA aqueous solution at a ratio of about 1:5 to 1:3 (vol/vol) with total flow rates above 15 ml/min. The ethanol was then removed and the external buffer replaced with PBS by dialysis. Finally, the lipid nanoparticles were filtered through a 0.2 μm pore sterile filter. Lipid nanoparticle particle size was 70-90 nm diameter as determined by quasi-elastic light scattering using a Nicomp 370 submicron particle sizer (Santa Barbara, Calif.).
Studies were performed in 6-8 week old female C57BL/6 mice (Charles River) according to guidelines established by an institutional animal care committee (ACC) and the Canadian Council on Animal Care (CCAC). Varying doses of mRNA-lipid nanoparticle were systemically administered by tail vein injection and animals euthanized at specific time points (1, 2, 4, 8 and 24 hrs) post-administration. Liver and spleen were collected in pre-weighted tubes, weights determined, immediately snap frozen in liquid nitrogen and stored at −80° C. until processing for analysis.
For liver, approximately 50 mg was dissected for analyses in a 2 mL FastPrep tubes (MP Biomedicals, Solon Ohio). ¼″ ceramic sphere (MP Biomedicals) was added to each tube and 500 μL of Glo Lysis Buffer—GLB (Promega, Madison Wis.) equilibrated to room temperature was added to liver tissue. Liver tissues were homogenized with the FastPrep24 instrument (MP Biomedicals) at 2×6.0 m/s for 15 seconds. Homogenate was incubated at room temperature for 5 minutes prior to a 1:4 dilution in GLB and assessed using SteadyGlo Luciferase assay system (Promega). Specifically, 50 μL of diluted tissue homogenate was reacted with 50 μL of SteadyGlo substrate, shaken for 10 seconds followed by 5 minute incubation and then quantitated using a CentroXS^3 LB 960 luminometer (Berthold Technologies, Germany). The amount of protein assayed was determined by using the BCA protein assay kit (Pierce, Rockford Ill.). Relative luminescence units (RLU) were then normalized to total ug protein assayed. To convert RLU to ng luciferase a standard curve was generated with QuantiLum Recombinant Luciferase (Promega). Based in the data provided in FIG. 1, the four-hour time point was chosen for efficacy evaluation of the lipid formulations (see Example 29).
The FLuc mRNA (L-6107) from Trilink Biotechnologies will express a luciferase protein, originally isolated from the firefly, Photinus pyralis. FLuc is commonly used in mammalian cell culture to measure both gene expression and cell viability. It emits bioluminescence in the presence of the substrate, luciferin. This capped and polyadenylated mRNA is fully substituted with 5-methylcytidine and pseudouridine.
The cationic lipids shown in Table 2 have previously been tested with nucleic acids. For comparative purposes, these lipids were also used to formulate lipid nanoparticles containing the FLuc mRNA (L-6107) using an in line mixing method, as described in example 28 and in PCT/US10/22614, which is hereby incorporated by reference in its entirety. […] Relative activity was determined by measuring luciferase expression in the liver 4 hours following administration via tail vein injection as described in example 28. The activity was compared at a dose of 0.3 and 1.0 mg mRNA/kg and expressed as ng luciferase/g liver measured 4 hours after administration, as described in Example 28. […]

[2] = pKa of formulated cationic lipids in lipid nanoparticles (TNS fluorescence assay); format: physicochemical; settings: probe 2-(p-toluidino)-6-napthalene sulfonic acid (TNS), 1 µM final; formulated in LNP cationic lipid/DSPC/cholesterol/PEG-lipid 50/10/38.5/1.5 mol %; pH of half-maximal TNS fluorescence
Description: As described elsewhere, the pKa of formulated cationic lipids is correlated with the effectiveness of LNPs for delivery of nucleic acids (see Jayaraman et al, Angewandte Chemie, International Edition (2012), 51(34), 8529-8533; Semple et al, Nature Biotechnology 28, 172-176 (2010)). The preferred range of pKa is ˜5 to ˜7. […] Lipid nanoparticles comprising of cationic lipid/DSPC/cholesterol/PEG-lipid (50/10/38.5/1.5 mol %) in PBS at a concentration of 0.4 mM total lipid are prepared using the in-line process as described in Example 28. TNS was prepared as a 100 μM stock solution in distilled water. Vesicles were diluted to 24 μM lipid in 2 mL of buffered solutions containing, 10 mM HEPES, 10 mM MES, 10 mM ammonium acetate, 130 mM NaCl, where the pH ranged from 2.5 to 11. An aliquot of the TNS solution was added to give a final concentration of 1 μM and following vortex mixing fluorescence intensity was measured at room temperature in a SLM Aminco Series 2 Luminescence Spectrophotometer using excitation and emission wavelengths of 321 nm and 445 nm. A sigmoidal best fit analysis was applied to the fluorescence data and the pKa was measured as the pH giving rise to half-maximal fluorescence intensity (see FIG. 2).

Structure (SMILES) | Liver Luc @ 0.3 mg/kg dose [1] [ng luciferase/g liver] | Liver Luc @ 1.0 mg/kg dose [1] [ng luciferase/g liver] | pKa [2] | Liver Luc @ 0.3 mg/kg (ng luc/g liver) [1] [ng luc/g liver] | Liver Luc @ 1.0 mg/kg (ng luc/g liver) [1] [ng luc/g liver]
CCCCCC/C=C\C/C=C\COC(=O)CCCCCCCC(CCCCCCCC(=O)OC/C=C\CCCCCC)OC(=O)CCCN(C)C (centres unmarked) [319 (2% PEG), reference compound] | 258 ± 67 | 681 ± 203 | – | – | –
CCCCC/C=C\C/C=C\CCCCCCCCC(CCCCCCCC/C=C\C/C=C\CCCCC)NCCCN(C)C [A, reference compound] | – | – | 7.05 | – | –
CCCCC/C=C\C/C=C\CCCCCCCCC(CCCCCCCC/C=C\C/C=C\CCCCC)N(C)CCN(C)C [B, reference compound] | – | – | 6.17 | 95 ± 41 | 1131 ± 384
CCCCC/C=C\C/C=C\CCCCCCCCC(CCCCCCCC/C=C\C/C=C\CCCCC)N(CC)CCCN(C)C [C, reference compound] | – | – | 6.36 | 24 ± 4 | 77 ± 19
CCCCC/C=C\C/C=C\CCCCCCCCC(CCCCCCCC/C=C\C/C=C\CCCCC)N(CCCCCCCCC)CCCN(C)C [Compound 1] | – | – | 5.64 | 54 ± 8 | 226 ± 20
CCCCC/C=C\C/C=C\CCCCCCCCC(CCCCCCCC/C=C\C/C=C\CCCCC)N(CCCN(C)C)C(=O)CCCCCCCC [Compound 5] | – | – | 6.27 | 603 ± 167 | 3640 ± 601
CCCCC/C=C\C/C=C\CCCCCCCCC(CCCCCCCC/C=C\C/C=C\CCCCC)N(CCCN(C)C)C(=O)CCCCCCC/C=C\C/C=C\CCCCC [Compound 6] | – | – | 6.14 | 19 ± 4 | 211 ± 119
CCCCC/C=C\C/C=C\CCCCCCCCC(CCCCCCCC/C=C\C/C=C\CCCCC)N(CCCN(C)C)C(=O)C(CC)CCCCC (centres unmarked) [Compound 7] | – | – | 5.93 | 833 ± 401 | 8859 ± 780
CCCCC/C=C\C/C=C\CCCCCCCCC(CCCCCCCC/C=C\C/C=C\CCCCC)N(CCCN(C)C)C(=O)C(CCCCCC)CCCCCCCC (centres unmarked) [Compound 8] | – | – | 5.35 | 105 ± 98 | 1238 ± 153
CCCCCCCCC(=O)N(CCCN(C)C)C(CCCCCCCCC(=O)OCC(CCCC)CCCCCC)CCCCCCCCC(=O)OCC(CCCC)CCCCCC (centres unmarked) [Compound 9] | – | – | 6.27 | 2381 ± 1162 | 17157 ± 2470
CCCCCCCC(=O)N(CCCN(C)C)C(CCCCCCCCC(=O)OC(CCCCCC)CCCCCC)CCCCCCCCC(=O)OC(CCCCCC)CCCCCC [Compound 10] | – | – | 6.16 | 2379 ± 93 | 26181 ± 2900
CCCCCCCCC(=O)N(CCCN(C)C)C(CCCCCCCCC(=O)OC(CCCCCC)CCCCCC)CCCCCCCCC(=O)OC(CCCCCC)CCCCCC [Compound 11] | – | – | 6.13 | 2273 ± 294 | 16502 ± 4301
CCCCCCCCC(CCCCCC)COC(=O)CCCCCCCCC(CCCCCCCCC(=O)OCC(CCCCCC)CCCCCCCC)N(CCCN(C)C)C(=O)CCCCCCC (centres unmarked) [Compound 12] | – | – | 6.21 | 3336 ± 1394 | 13577 ± 1948
CCCCCCCCC(=O)N(CCCN(C)C)C(CCCCCCCCC(=O)OCC(CCCCCC)CCCCCCCC)CCCCCCCCC(=O)OCC(CCCCCC)CCCCCCCC (centres unmarked) [Compound 13] | – | – | 6.22 | 1537 ± 777 | 10907 ± 2032
CCCCC/C=C\C/C=C\CCCCCCCCC(CCCCCCCC/C=C\C/C=C\CCCCC)N(CCCN(C)C)C(=O)CCCCCCCC(=O)OCC [Compound 37] | – | – | 5.61 | – | –
CCCCCCCCCCC(CCCCCCCC)COC(=O)CCCCCC(CCCCCC(=O)OCC(CCCCCCCC)CCCCCCCCCC)N(CCCN(C)C)C(=O)CCCCCCCC (centres unmarked) [Compound 41] | – | – | – | 832 ± 298 | 7437 ± 1612
CCCCC(CC)C(=O)OCCCCCCCCCC(CCCCCCCCCOC(=O)C(CC)CCCC)OC(=O)CCCN(C)C (centres unmarked) [Compound 137, reference compound] | 281 ± 203 | 588 ± 303 | – | – | –
CCCCC/C=C\C/C=C\CCCCCCCCOCC(CN(C)C)OCCCCCCCC/C=C\C/C=C\CCCCC (centres unmarked) [DLinDMA, reference compound] | 13 ± 3 | 67 ± 20 | – | – | –
CCCCC/C=C\C/C=C\CCCCCCCCC(CCCCCCCC/C=C\C/C=C\CCCCC)OC(=O)CCN(C)C [MC2, reference compound] | 4 ± 1 | – | – | – | –
CCCCC/C=C\C/C=C\CCCCCCCCC(CCCCCCCC/C=C\C/C=C\CCCCC)OC(=O)CCCCN(C)C [MC4, reference compound] | 41 ± 10 | – | – | – | –
CCCCC/C=C\C/C=C\CCCCCCCCC1(CCCCCCCC/C=C\C/C=C\CCCCC)OC[C@@H](CCN(C)C)O1 [XTC2, reference compound] | 80 ± 28 | 237 ± 99 | – | – | –
